Consider three molecules from paper PMC7793531 (International Journal of Molecular Sciences, 2020).

pIC50: −log10 of the molar value. Like-named read-outs stand apart in the source and are kept apart here. Non-standard residues stand in square brackets, D forms with d. Residues, ends and D or L forms follow the SMILES beside them. ξ: configuration not given here. Oic(3aξ,7aξ) = O=C(O)[C@@H]1CC2CCCCC2N1; hArg = N=C(N)NCCCC[C@H](N)C(=O)O; Dab = NCC[C@H](N)C(=O)O

Data set [1] addresses T1, VEGF-A165/NRP-1 complex (Homo sapiens, UniProt O14786).
T1 construct: purchased R&D Systems
T1 sequence (O14786 22-641 limits assumed): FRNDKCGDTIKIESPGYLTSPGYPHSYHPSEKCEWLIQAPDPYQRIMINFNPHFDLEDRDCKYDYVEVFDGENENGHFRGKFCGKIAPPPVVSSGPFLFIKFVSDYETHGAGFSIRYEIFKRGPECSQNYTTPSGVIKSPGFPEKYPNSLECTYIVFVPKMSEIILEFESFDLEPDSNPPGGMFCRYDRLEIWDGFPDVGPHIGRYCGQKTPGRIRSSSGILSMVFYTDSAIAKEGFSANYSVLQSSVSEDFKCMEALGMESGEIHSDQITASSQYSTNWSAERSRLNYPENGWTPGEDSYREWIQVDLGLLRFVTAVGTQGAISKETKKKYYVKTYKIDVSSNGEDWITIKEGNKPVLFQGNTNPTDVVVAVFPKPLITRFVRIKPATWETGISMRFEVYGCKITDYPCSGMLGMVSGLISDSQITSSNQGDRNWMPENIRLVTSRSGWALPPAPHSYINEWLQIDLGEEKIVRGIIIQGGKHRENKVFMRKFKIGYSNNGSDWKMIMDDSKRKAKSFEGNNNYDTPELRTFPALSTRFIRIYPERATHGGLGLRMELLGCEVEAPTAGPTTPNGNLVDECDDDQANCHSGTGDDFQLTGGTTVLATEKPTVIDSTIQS
The data set is described as follows: Competitive ELISA-like assay, inhibition of bt-VEGF-A165 binding to immobilized NRP-1. To be noted: recombinant human NRP-1, bt-VEGF-A165, chemiluminescence; read-out: IC50, VEGF-A165/NRP-1 complex inhibitory effect. Here is the method: Inhibitory activity of urea–peptide hybrids against VEGF-A165/NRP-1 complex formation was assessed with a screening ELISA-like assay. NRP-1 was immobilized on microplate wells by simple adsorption and urea–peptide hybrids competed for NRP-1 with biotinylated VEGF-A165 (bt-VEGF-A165). The amount of receptor bound bt-VEGF-A165 was visualized by its interaction with the streptavidin–horseradish peroxidase conjugate (strep-HRP) and the chemiluminescent substrate. The first analyzed group of compounds were analogues 1–3 with the urea bond between L1 and L2. […] The best hybrid in this group was compound 3, which had Lys^U (gDab) branching (where “g” corresponds to guanidinium group), but its IC50 value decreased only 2-fold. Therefore, we assume that no additional interactions between urea bond and the surface of the protein occurred. […] In the case of urea–peptide hybrids, the urea bond might be capable of forming additional hydrogen bonds with protein residues on the surface of NRP-1. The affinity of compounds may conceivably be affected by the colocation of the urea bond and the free amino group of hArg in the branching. In addition, for compounds 4–6, we can observe that decreasing the distance between the free amino group in the main chain and the urea bond in the branching has a positive effect on compounds’ affinity for NRP-1.
This method was previously described for NRP-1 [44, 45, 46]. Briefly, overnight coating at 4 °C of the flat bottom surface of a 96-well plate with 100 μL (200 ng/well) recombinant human NRP-1, NRP-2, VEGFR-1 or VEGFR-2 was followed by non-specific interactions blocking using 0.5% bovine serum albumin (BSA) in PBS. Next, 50 µL of urea–peptide hybrid in PBS and 50 µL (400 ng/mL) of human (bt)-VEGF-A165 in PBS containing 4 µg/mL of heparin were added respectively. Plates were incubated for 2 h at RT, and then washed and treated with streptavidin-horseradish peroxidase conjugate in PBS (1:8000). Next, 100 µL chemiluminescent substrate was added, and luminescence was quantified using Tecan Infinite F200Pro microplate reader (Männedorf, Switzerland). In a positive control (P) only (bt)-VEGF-A165 was present in wells. Not coated by receptor wells were treated as a negative control (N). Percentages of inhibition were calculated by the following formula:100% − [[(S − N)/(P − N)]∙100%](1) where S is the signal intensity measured in wells with urea–peptide hybrid. The IC50 of each urea–peptide hybrid was calculated using the nonlinear regression function with GraphPad Prism Version-5.01 (GraphPad Software, San Diego, CA, USA). Data are presented as log (inhibitor) versus normalized response-variable slope (Figure S16). Data are the means ± SEMs of two or three independent experiments, each performed in triplicate.
A general note: An ELISA detects its analyte on a solid surface through an enzyme-linked reagent.

Data set [2] relates to NRP-1 expression on MDA-MB-231 breast cancer cells. Nature of the data set: Labelled urea-peptide hybrid binding assay at 37 °C, time course of NRP-1 cell surface expression (FACS). In kind it is cell-based, human. As for the experimental part: Usually, in the presence of its natural ligand, a transmembrane receptor at the cell surface may induce signaling, internalization of complex and recycling at the cell surface. […] Thus, to identify the mechanism of action of the hybrid 10 on the NRP-1 expression on cells, we followed its expression after a time course exposure of cells at 37 °C. […] This intriguing result focused our attention on tracking the level of expression intensity of NRP-1 on the surfaced of MDA-MB-231 cells exposed on compound 10. […] The median fluorescent intensity after 1 h (T60) of cell exposure on hybrid 10 was 1.5-fold higher than after 5 min of incubation (Figure 7b). […] This hypothesis is strengthened here, since MDA-MB-231 expressed a large amount of NRP-1 at the cell surface, but also had plenty of the cytoplasmic counterpart, reaching a maximum of median fluorescence intensity higher than the restricted level of NRP-1 expression at the surface (Figure 7c).
(§1) Cells were harvested using a mix of EDTA/Trypsin buffer (Invitrogen, France) to detach cells from plastic after 5 min exposure at 37 °C. […] After washing with PBS containing 2% FCS, stained cells were analyzed using BD FACSCalibur^TM (San Jose, CA, USA) and FlowJo^TM cell analysis software (FlowJo LLC, Ashland, OR, USA). […]

The test system of data set [3] is NRP-1-positive breast cancer cells (MDA-MB-231). The data set is described as follows: Labelled urea-peptide hybrid binding assay at 4 °C on cells (FACS), with NRP-1 co-staining. Format: cell-based, human.
From the text: VEGF-A165 binds to cell-surface NRP-1 on endothelial cells, effectively reducing surface levels of this receptor, promoting complex internalization and possibly inducing biological effects. Based on this mechanism, peptide carriers for selective drug delivery, such as iRGD peptides, have been recently disclosed. The iRGDs are used to selectively address potential therapeutic agents, e.g., doxorubicin or siRNAs inside malignant cells. We tested our tagged urea–peptide hybrid’s ability to bind human NRP-1-positive breast cancer cells (MDA-MB-231), which expressed large amount of NRP-1 at the cell surface (Figure 6a). A broad range of concentrations between 0 to 100 µg/mL of compound 10 was used to show its binding capacity on cells using fluorescence-activated cell sorting (FACS). […] To follow the impact of the ligation of this peptidomimetic on NRP-1 expression, we verified whether hybrid 10 binding interferes with the antibody used to detect NRP-1. […]
as §1

The nature of data set [4]: In vitro enzymatic stability in human blood serum (LC-SWATH-MS). Conditions: pooled human blood serum, 37 °C. Format: in vitro ADME. As for the experimental part: Rapid renal clearance and enzymatic degradation are classified as most important disadvantages of peptides as drugs. Covalent linkage to plasma proteins or chemical modifications, including amide bond modifications, might improve their half-lives. We performed proteolytic stability studies in human blood serum to investigate whether the introduction of urea bonds affected the half-lives of compounds from each of synthesized group of hybrids. Compounds 3, 6 and 7 were incubated with human serum at 37 °C. Samples were taken at different time intervals and analyzed using LC-SWATH-MS [88, 89, 90]. […] Hybrids 6 and 7 were stable toward enzymatic degradation, with 50% of each compound still being intact after 96 h (Figure 5). […] Overall, it can be concluded that the substitution of an amide bond with a urea bond has a positive effect on the proteolytic stability of the examined inhibitors.
The study was conducted in full accordance with ethical principles in accordance with the ICH E6 (R2) Guideline for Good Clinical Practice and the Code of Good Customs in Science developed by the Polish Academy of Sciences. Signed consent for using serum was obtained from volunteers. The Rector’s Commission for Ethics of Scientific Research with Human Participation, University of Warsaw, Warsaw, Poland gave the ethical approval (approval number 51/2020). Human blood from four healthy persons was directly drawn into evacuated tubes and left undisturbed at room temperature for 1 h to clot. Tubes were centrifuged at 2500× g for 10 min to prevent possible platelet activation. Serum was pipetted out of the blood collection tubes, pooled and collected in microtubes.
A degradation assay was adapted from a method described previously. Human blood serum was preactivated in Eppendorf ThermoMixer® Comfort (Hamburg, Germany) at 37 °C for 20 min (350 rpm). Next, 20 μL of aqueous urea–peptide hybrid stock solution was added to give ∼750 μg/mL final compound concentration, and incubation was continued. At selected time intervals, 50 μL of the mixture was collected and quenched by adding 200 μL of ACN:H2O:FA mixture (89:10:1, v:v:v). The obtained suspension was vortexed for 1 min (3000 min^−1) and centrifuged for 10 min in 4 °C (11,000× g). 100 μL of supernatant was collected and lyophilized. The samples reconstituted in 1 mL of 10 mM ammonium formate with 0.1% FA were subjected to LC-MS. Relative concentration at time intervals was calculated using peak area of either individual or most intense fragment of compound of interest. Analyst software version 1.7.1 was used for data acquisition, Peak View 2.2 and MultiQuant 2.1 (Sciex, ON) were used for data processing. Detailed analytical data can be found in Supplementary Materials (Figures S17–S45). […]

For data set [5], the target named is T1, VEGF-A165/NRP-1 complex. Conditions: read-out: IC50, VEGF-A165/NRP-1 complex inhibitory effect, cited from earlier work.

In the case of “5/6-FAM-Dab(hArg^U)-Dab-Oic-Arg [Compound 10]”, the pIC50 on VEGF-A165/NRP-1 complex [1] is 5.39. Further, in data set [2] (100 µg/mL, 37 °C), the “median fluorescent intensity of NRP-1 after 1 h (T60) relative to 5 min of incubation” value is given as 1.5 fold. The “effect on NRP-1 cell surface expression” value in data set [2] (time course at 37 °C, independently of time exposure) is “no downmodulation of NRP-1 expression”. Also, in data set [3] (0 to 100 µg/mL, FACS), the binding on cells entry is “dose-dependent”. Besides, the “median fluorescence intensity of NRP-1 staining in presence of compound” value in data set [3] (100 μg/ml, 4 °C, 94 in its absence) turned out to be 88.

For `N=C(N)NCCCC[C@H](N)C(=O)NCCCC[C@H](N)C(=O)N[C@@H](CCN)C(=O)N1C2CCCCC2C[C@H]1C(=O)N[C@@H](CCCNC(=N)N)C(=O)O` (stereo partly drawn) [PP, Lys(hArg)-Dab-Oic-Arg, reference compound] (H-K(hArg)[Dab][Oic(3aξ,7aξ)]R-OH), the half-life (commonly the time needed for the level to fall by half in the phase considered) in data set [4] is 8 h. Besides, the pIC50 at VEGF-A165/NRP-1 complex [5] (data already published) is 5.64.

Regarding Lys(Arg^U)–Dab–Oic–Arg, on VEGF-A165/NRP-1 complex [5] (earlier urea analogue), the pIC50 was 5.26.
